Data from patent US8697730B2, “5-lipoxygenase activating protein (FLAP) inhibitor” (Panmira Pharmaceuticals, LLC, priority 2007, dated 2014).
Like-named read-outs stand apart in the source and are kept apart here.

Experiments:
[1] = pH solubility profile; type: physicochemical; conditions: 25 °C, thermodynamic from solid
[2] = Regional dosing study in rat; design: species or system Male Sprague-Dawley rats; conditions: in vivo
[3] = Phase 1 study in healthy human volunteers, plasma pharmacokinetics; type: in vivo; conditions: for AUC(0-t): read-out: AUC0-24 (hr * mM) AVE ± SD; for Tmax: read-out: Tmax (hr) AVE ± SD; for half-life: read-out: t1/2 (hr) AVE ± SD (converted)
Experimental: The study is divided into two phases (Single and Multiple Dose Phases).
One cohort in the Multiple Dose Phase receives twice daily dosing.
Placebo solution to match. The finished aqueous solution is prepared in the clinical study site pharmacy within 24 hours of dosing. The study drug is stored at room temperature between 15-30° C. (59-86° F.) and protected from light.
Route of Administration: All doses are administered orally with approximately 100 mL of water rinse. Subjects are fasted for at least 8 hours prior to dosing and for 2 hours after dosing.
Obtain pre-dose fasting blood samples for hematology determinations. Obtain pre-dose fasting blood samples for serum chemistry determinations. Obtain pre-dose blood samples (5 mL EDTA and 4 mL heparinized) for baseline PK and LTB4. Collect ‘spot’ urine prior to study drug administration for baseline (pre-dose) LTE4. Administer study drug. […] Collect blood samples (2 mL heparinized) for LTB4 at 0.5, 1, 2, 3, 4, 6, 8, and 12 hours. Collect urine for LTE4 for the following separate intervals: 0-3, 3-6, 6-9, and 9-12 hours. For twice daily dosing group (if conducted): administer study drug 12 hours±30 minutes after prior dose, preceded by ≧2 hours fast. […]

[4] = target: CYP2D6 (Homo sapiens, UniProt P10635); test: biochemical
[5] = target: T1, CYP1A2 (Homo sapiens, UniProt P05177); test: biochemical
T1 sequence (P05177 1-516): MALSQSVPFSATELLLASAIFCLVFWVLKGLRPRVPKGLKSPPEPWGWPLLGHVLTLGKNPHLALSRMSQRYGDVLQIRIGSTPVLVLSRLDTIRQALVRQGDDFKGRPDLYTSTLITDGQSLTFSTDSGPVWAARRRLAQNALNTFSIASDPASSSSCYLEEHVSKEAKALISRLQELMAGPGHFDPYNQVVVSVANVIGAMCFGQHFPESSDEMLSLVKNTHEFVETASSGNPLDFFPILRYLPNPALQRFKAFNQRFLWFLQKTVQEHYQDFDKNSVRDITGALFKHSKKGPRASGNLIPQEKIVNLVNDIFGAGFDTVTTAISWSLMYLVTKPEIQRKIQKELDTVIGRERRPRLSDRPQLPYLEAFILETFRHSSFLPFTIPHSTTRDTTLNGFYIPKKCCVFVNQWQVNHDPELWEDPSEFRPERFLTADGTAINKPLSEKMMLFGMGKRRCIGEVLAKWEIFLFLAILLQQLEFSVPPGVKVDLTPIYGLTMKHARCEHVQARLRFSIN

[6] = both sexes, human, single dose 50 mg, oral solution, fasted healthy subjects
[7] = both sexes, human, single dose 150 mg, oral solution, fasted healthy subjects
[8] = both sexes, human, single dose 300 mg, oral solution, fasted healthy subjects
[9] = both sexes, human, single dose 600 mg, oral solution, fasted healthy subjects
[10] = both sexes, human, single dose 1000 mg, oral solution, fasted healthy subjects
[11] = male, human, multiple dose phase, Day 1, 150 mg, oral solution
[12] = male, human, multiple dose phase, Day 1, 450 mg, oral solution
[13] = male, human, multiple dose phase, Day 1, 1000 mg, oral solution

CYP2D6, sequence (P10635 whole entry): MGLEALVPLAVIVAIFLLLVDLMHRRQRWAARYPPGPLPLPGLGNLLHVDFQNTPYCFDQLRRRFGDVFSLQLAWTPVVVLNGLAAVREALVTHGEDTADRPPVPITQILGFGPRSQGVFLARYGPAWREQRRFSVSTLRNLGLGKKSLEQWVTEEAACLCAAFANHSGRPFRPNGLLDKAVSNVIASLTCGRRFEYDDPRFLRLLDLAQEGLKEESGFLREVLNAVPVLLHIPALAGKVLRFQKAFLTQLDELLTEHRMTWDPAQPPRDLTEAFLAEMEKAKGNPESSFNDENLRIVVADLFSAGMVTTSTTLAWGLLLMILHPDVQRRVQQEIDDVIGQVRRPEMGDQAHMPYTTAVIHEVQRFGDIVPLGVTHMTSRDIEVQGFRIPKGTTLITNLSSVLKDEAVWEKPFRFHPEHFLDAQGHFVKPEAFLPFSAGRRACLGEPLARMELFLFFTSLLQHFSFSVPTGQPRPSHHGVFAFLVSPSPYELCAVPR

In the case of `COc1ccc(-c2ccc(Cn3c(CC(C)(C)C(=O)O)c(SC(C)(C)C)c4cc(OCc5ccccn5)ccc43)cc2)cn1` [sodium 3-[5-(pyridin-2-ylmethoxy)-3-(2-methyl-2-propylthio)-1-[4-(2-methoxypyridin-5-yl)benzyl]-indol-2-yl]-2,2-dimethyl-propionate], the solubility ([1]; aqueous medium, aqueous buffer, about pH 7, read-out: aqueous solubility) is reported as < 0.005 mg/mL, the solubility ([1]; basic media, pH 10, aqueous buffer, read-out: solubility in basic media) is reported as > 70 mg/mL and the “site of absorption in words” value [2] is reported as “mainly absorbed in the upper gastrointestinal tract”. For the same compound, the AUC(0-t) [3, 6] was 5.4 ± 2.5 µM·h, the Cmax ([3]; both sexes, human, single dose 50 mg, oral solution, fasted healthy subjects, read-out: Cmax (mM) AVE ± SD) was 0.00065 ± 0.00032 mM and the Tmax [3, 6] was 3 ± 0.8 h. The half-life [3, 6] was 7.7 ± 0.3 h, the AUC(0-t) [3, 7] was 15.9 ± 8.7 µM·h and the Cmax ([3]; both sexes, human, single dose 150 mg, oral solution, fasted healthy subjects, read-out: Cmax (mM) AVE ± SD) was 0.0018 ± 0.0011 mM. It also gave a Tmax [3, 7] of 2.5 ± 0.5 h, a half-life [3, 7] of 10 ± 2 h and an AUC(0-t) [3, 8] of 25.8 ± 7.4 µM·h. For the same compound, the Cmax ([3]; both sexes, human, single dose 300 mg, oral solution, fasted healthy subjects, read-out: Cmax (mM) AVE ± SD) was 0.0031 ± 0.0014 mM, the Tmax [3, 8] was 3.2 ± 1 h and the half-life [3, 8] was 12.3 ± 3.1 h. It also gave an AUC(0-t) [3, 9] of 54 ± 35.3 µM·h, a Cmax ([3]; both sexes, human, single dose 600 mg, oral solution, fasted healthy subjects, read-out: Cmax (mM) AVE ± SD) of 0.0081 ± 0.0053 mM and a Tmax [3, 9] of 2 ± 0.6 h. It also gave a half-life [3, 9] of 8.8 ± 1.3 h, an AUC(0-t) [3, 10] of 85 ± 44 µM·h and a Cmax ([3]; both sexes, human, single dose 1000 mg, oral solution, fasted healthy subjects, read-out: Cmax (mM) AVE ± SD) of 0.013 ± 0.005 mM. For the same compound, the Tmax [3, 10] was 3 ± 0.8 h, the half-life [3, 10] was 7.6 ± 4.6 h and the Cmax ([3]; both sexes, oral, profile that may be obtained from a single dose administration to a human, dose not stated, read-out: Cmax) was ≤ 0.005 mM. For the same compound, the AUC(0-t) [3, 11] was 11.3 ± 5 µM·h, the Cmax ([3]; male, human, multiple dose phase, Day 1, 150 mg, oral solution, read-out: Cmax (mM) AVE ± SD) was 0.0019 ± 0.0011 mM and the Tmax [3, 11] was 2.5 ± 0.5 h. For the same compound, the half-life [3, 11] was 9.2 ± 2 h, the AUC(0-t) [3, 12] was 34.2 ± 7.9 µM·h and the Cmax ([3]; male, human, multiple dose phase, Day 1, 450 mg, oral solution, read-out: Cmax (mM) AVE ± SD) was 0.0047 ± 0.0022 mM. For the same compound, the Tmax [3, 12] was 2.7 ± 0.5 h, the half-life [3, 12] was 13.2 ± 3.9 h and the AUC(0-t) [3, 13] was 127 ± 50 µM·h. The Cmax ([3]; male, human, multiple dose phase, Day 1, 1000 mg, oral solution, read-out: Cmax (mM) AVE ± SD) was 0.0144 ± 0.0051 mM, the Tmax [3, 13] was 2.3 ± 0.5 h and the half-life [3, 13] was 11.2 ± 5.1 h. The IC50 [4] was > 50 µM and the IC50 [5] was > 50 µM.
